Test results reported in ChEMBL document CHEMBL1135565, “Synthesis of base-modified dihydropacidamycins” (2002).

These molecules were tested on Pseudomonas aeruginosa (assay: Minimum inhibitory concentration against Pseudomonas aeruginosa).
Assay type: functional

MIC, > 512 µg/mL:
C[C@H](NC(=O)N[C@@H](Cc1c[nH]c2ccccc12)C(=O)O)C(=O)N[C@H](C(=O)NC[C@H]1C[C@@H](O)[C@H](n2ccc(=O)n(C)c2=O)O1)[C@H](C)N(C)C(=O)[C@@H](C)N
COc1cccn([C@@H]2O[C@@H](CNC(=O)[C@@H](NC(=O)[C@H](C)NC(=O)N[C@@H](Cc3c[nH]c4ccccc34)C(=O)O)[C@H](C)N(C)C(=O)[C@@H](C)N)C[C@H]2O)c1=O
Cc1cn([C@@H]2O[C@@H](CNC(=O)[C@@H](NC(=O)[C@H](C)NC(=O)N[C@@H](Cc3c[nH]c4ccccc34)C(=O)O)[C@H](C)N(C)C(=O)[C@@H](C)N)C[C@H]2O)c(=O)[nH]c1=O
Cc1c(C)n([C@@H]2O[C@@H](CNC(=O)[C@@H](NC(=O)[C@H](C)NC(=O)N[C@@H](Cc3c[nH]c4ccccc34)C(=O)O)[C@H](C)N(C)C(=O)[C@@H](C)N)C[C@H]2O)c(=O)[nH]c1=O
C[C@H](NC(=O)N[C@@H](Cc1c[nH]c2ccccc12)C(=O)O)C(=O)N[C@H](C(=O)NC[C@H]1C[C@@H](O)[C@H](n2cc(Cl)c(=O)[nH]c2=O)O1)[C@H](C)N(C)C(=O)[C@@H](C)N
C[C@H](NC(=O)N[C@@H](Cc1c[nH]c2ccccc12)C(=O)O)C(=O)N[C@H](C(=O)NC[C@H]1C[C@@H](O)[C@H](n2cc(F)c(=O)[nH]c2=O)O1)[C@H](C)N(C)C(=O)[C@@H](C)N
Cc1cc(=O)[nH]c(=O)n1[C@@H]1O[C@@H](CNC(=O)[C@@H](NC(=O)[C@H](C)NC(=O)N[C@@H](Cc2c[nH]c3ccccc23)C(=O)O)[C@H](C)N(C)C(=O)[C@@H](C)N)C[C@H]1O

The molecules below were run on Escherichia coli (assay: Minimum inhibitory concentration against Escherichia coli).
Assay type: functional

MIC, > 512 µg/mL:
C[C@H](NC(=O)N[C@@H](Cc1c[nH]c2ccccc12)C(=O)O)C(=O)N[C@H](C(=O)NC[C@H]1C[C@@H](O)[C@H](n2ccc(=O)n(C)c2=O)O1)[C@H](C)N(C)C(=O)[C@@H](C)N
COc1cccn([C@@H]2O[C@@H](CNC(=O)[C@@H](NC(=O)[C@H](C)NC(=O)N[C@@H](Cc3c[nH]c4ccccc34)C(=O)O)[C@H](C)N(C)C(=O)[C@@H](C)N)C[C@H]2O)c1=O
Cc1cn([C@@H]2O[C@@H](CNC(=O)[C@@H](NC(=O)[C@H](C)NC(=O)N[C@@H](Cc3c[nH]c4ccccc34)C(=O)O)[C@H](C)N(C)C(=O)[C@@H](C)N)C[C@H]2O)c(=O)[nH]c1=O
Cc1c(C)n([C@@H]2O[C@@H](CNC(=O)[C@@H](NC(=O)[C@H](C)NC(=O)N[C@@H](Cc3c[nH]c4ccccc34)C(=O)O)[C@H](C)N(C)C(=O)[C@@H](C)N)C[C@H]2O)c(=O)[nH]c1=O
C[C@H](NC(=O)N[C@@H](Cc1c[nH]c2ccccc12)C(=O)O)C(=O)N[C@H](C(=O)NC[C@H]1C[C@@H](O)[C@H](n2cc(Cl)c(=O)[nH]c2=O)O1)[C@H](C)N(C)C(=O)[C@@H](C)N
C[C@H](NC(=O)N[C@@H](Cc1c[nH]c2ccccc12)C(=O)O)C(=O)N[C@H](C(=O)NC[C@H]1C[C@@H](O)[C@H](n2cc(F)c(=O)[nH]c2=O)O1)[C@H](C)N(C)C(=O)[C@@H](C)N
Cc1cc(=O)[nH]c(=O)n1[C@@H]1O[C@@H](CNC(=O)[C@@H](NC(=O)[C@H](C)NC(=O)N[C@@H](Cc2c[nH]c3ccccc23)C(=O)O)[C@H](C)N(C)C(=O)[C@@H](C)N)C[C@H]1O

What follows are molecules tested on Pasteurella multocida (assay: Minimum inhibitory concentration against Pasteurella multocida).
Assay type: functional

MIC, > 512 µg/mL:
C[C@H](NC(=O)N[C@@H](Cc1c[nH]c2ccccc12)C(=O)O)C(=O)N[C@H](C(=O)NC[C@H]1C[C@@H](O)[C@H](n2ccc(=O)n(C)c2=O)O1)[C@H](C)N(C)C(=O)[C@@H](C)N
COc1cccn([C@@H]2O[C@@H](CNC(=O)[C@@H](NC(=O)[C@H](C)NC(=O)N[C@@H](Cc3c[nH]c4ccccc34)C(=O)O)[C@H](C)N(C)C(=O)[C@@H](C)N)C[C@H]2O)c1=O
Cc1cn([C@@H]2O[C@@H](CNC(=O)[C@@H](NC(=O)[C@H](C)NC(=O)N[C@@H](Cc3c[nH]c4ccccc34)C(=O)O)[C@H](C)N(C)C(=O)[C@@H](C)N)C[C@H]2O)c(=O)[nH]c1=O
Cc1c(C)n([C@@H]2O[C@@H](CNC(=O)[C@@H](NC(=O)[C@H](C)NC(=O)N[C@@H](Cc3c[nH]c4ccccc34)C(=O)O)[C@H](C)N(C)C(=O)[C@@H](C)N)C[C@H]2O)c(=O)[nH]c1=O
C[C@H](NC(=O)N[C@@H](Cc1c[nH]c2ccccc12)C(=O)O)C(=O)N[C@H](C(=O)NC[C@H]1C[C@@H](O)[C@H](n2cc(Cl)c(=O)[nH]c2=O)O1)[C@H](C)N(C)C(=O)[C@@H](C)N
C[C@H](NC(=O)N[C@@H](Cc1c[nH]c2ccccc12)C(=O)O)C(=O)N[C@H](C(=O)NC[C@H]1C[C@@H](O)[C@H](n2cc(F)c(=O)[nH]c2=O)O1)[C@H](C)N(C)C(=O)[C@@H](C)N
Cc1cc(=O)[nH]c(=O)n1[C@@H]1O[C@@H](CNC(=O)[C@@H](NC(=O)[C@H](C)NC(=O)N[C@@H](Cc2c[nH]c3ccccc23)C(=O)O)[C@H](C)N(C)C(=O)[C@@H](C)N)C[C@H]1O

These molecules were tested on Staphylococcus aureus (assay: Minimum inhibitory concentration against Staphylococcus aureus).
Assay type: functional

MIC, > 512 µg/mL:
C[C@H](NC(=O)N[C@@H](Cc1c[nH]c2ccccc12)C(=O)O)C(=O)N[C@H](C(=O)NC[C@H]1C[C@@H](O)[C@H](n2ccc(=O)n(C)c2=O)O1)[C@H](C)N(C)C(=O)[C@@H](C)N
COc1cccn([C@@H]2O[C@@H](CNC(=O)[C@@H](NC(=O)[C@H](C)NC(=O)N[C@@H](Cc3c[nH]c4ccccc34)C(=O)O)[C@H](C)N(C)C(=O)[C@@H](C)N)C[C@H]2O)c1=O
Cc1cn([C@@H]2O[C@@H](CNC(=O)[C@@H](NC(=O)[C@H](C)NC(=O)N[C@@H](Cc3c[nH]c4ccccc34)C(=O)O)[C@H](C)N(C)C(=O)[C@@H](C)N)C[C@H]2O)c(=O)[nH]c1=O
Cc1c(C)n([C@@H]2O[C@@H](CNC(=O)[C@@H](NC(=O)[C@H](C)NC(=O)N[C@@H](Cc3c[nH]c4ccccc34)C(=O)O)[C@H](C)N(C)C(=O)[C@@H](C)N)C[C@H]2O)c(=O)[nH]c1=O
C[C@H](NC(=O)N[C@@H](Cc1c[nH]c2ccccc12)C(=O)O)C(=O)N[C@H](C(=O)NC[C@H]1C[C@@H](O)[C@H](n2cc(Cl)c(=O)[nH]c2=O)O1)[C@H](C)N(C)C(=O)[C@@H](C)N
C[C@H](NC(=O)N[C@@H](Cc1c[nH]c2ccccc12)C(=O)O)C(=O)N[C@H](C(=O)NC[C@H]1C[C@@H](O)[C@H](n2cc(F)c(=O)[nH]c2=O)O1)[C@H](C)N(C)C(=O)[C@@H](C)N
Cc1cc(=O)[nH]c(=O)n1[C@@H]1O[C@@H](CNC(=O)[C@@H](NC(=O)[C@H](C)NC(=O)N[C@@H](Cc2c[nH]c3ccccc23)C(=O)O)[C@H](C)N(C)C(=O)[C@@H](C)N)C[C@H]1O
